Data on one compound can be found in patent US20010034454A1, “Description anti-mitotic agents which inhibit tubulin polymerization” (BYLOR UNIVERSITY AND ARIZONA DESEASE CONTROL RESEARCH …, priority 1998, published 2001).

Assay [1] has as its system T1, tubulin.
T1 construct: Purified tubulin is obtained from bovine brain cells as described in Hamel and Lin
Kind of assay: Tubulin polymerization assay. It is filed as biochemical, bovine. The following applies: read-out: 50% inhibition of the maximum tubulin assembly rate; inhibition of rate rather than steady state. Here is the method:
The ability of the various above described compounds to inhibit tubulin polymerization can be determined by in vitro assay. A suitable assay system is that described by Bai et al. A method for purifying tubulin from bovine brain cells is described by Hamel and Lin.
IC50 values for tubulin polymerization were determined according to the procedure described in Bai et al. Purified tubulin is obtained from bovine brain cells as described in Hamel and Lin. Various amounts of inhibitor were preincubated for 15 minutes at 37° C. with purified tubulin. After the incubation period, the reaction was cooled and GTP was added to induce tubulin polymerization. Polymerization was then monitored in a Gilford spectrophotometer at 350 nm. The final reaction mixtures (0.25 ml) contained 1.5 mg/ml tubulin, 0.6 mg/ml microtubule-associated proteins (MAPs), 0.5 mM GTP, 0.5 mM MgCl2, 4% DMSO and 0.1 M 4-morpholineethanesulfonate buffer (MES, pH 6.4). […]

In assay [2] the test system is tubulin. Description: Inhibition of binding of [3H]colchicine to tubulin. The following applies: comparator, concentration not given. From the text: A measurement of each compound's tubulin affinity may also be determined through the compound's ability to inhibit colchichine-tubulin binding. A suitable assay is that described by Kang et al., involving the use of commercially available tritiated colchicine. Decreases in the amount of [^3H]colchicine-tubulin interaction due to the competitive binding of one of the novel inhibitors of this invention may be measured by autoradiography or scintillation counting.

The structures appear in SMILES notation.

As for `COc1ccc(/C=C\c2cc(OC)c(OC)c(OC)c2)cc1O` [Combretastatin A-4, reference compound], the IC50 in the assay with tubulin [1] was […]. Besides, the “inhibition of the binding of [3H]colchicine to tubulin” value in the assay on tubulin [2] is “total inhibition”.
